Results reported in patent US12478619B2, “Method of treatment with milsaperidone” (Vanda Pharmaceuticals Inc., priority 2023, dated 2025).

Experiments:
[1] = Study 3201: serum urate in patients with acute manic episodes associated with bipolar I disorder, iloperidone vs placebo, 4 weeks; assay type: in vivo, human; settings: for Serum urate LS Mean Change (SE) from baseline: iloperidone 24 mg/day (12 mg bid) oral, ANCOVA
Protocol: A multi-center, randomized, double-blind, placebo-controlled study (“Study 3201”) is performed to evaluate the safety and efficacy of iloperidone for four (4) weeks in the treatment of patients with acute manic episodes associated with bipolar I disorder. Patients in the study are randomized to orally receive either iloperidone at a dose of 24 mg/day given in a divided dose as 12 mg twice daily (bid), or matched placebo.
These increases are illustrated in FIG. 3 using solid data points.
To test the hypothesis of altered urate serum levels in association with variants in the SLC2A9 gene, whole genome sequencing is conducted from blood samples, genotype status is obtained through standard data analysis, and linear models for SLC2A9 variants are performed on urate concentration in samples collected at baseline (corrected for PCs, age, sex) and samples collected at the end of the study (EOS).

[2] = human, in vivo
Protocol: A study is performed to evaluate the efficacy and safety of iloperidone compared with placebo and active control (ziprasidone) in subjects with acute schizophrenia (“Study 3101”). Patients are randomized to receive one of iloperidone at a dose of 24 mg/day given in a divided dose as 12 mg twice daily (bid), active comparator ziprasidone, or placebo. […] Uric acid results are converted to SI units using the conversion 1 mg/dL=59.5 μmol/L.
Results are provided in Table 7 below, including an increase of 28.0 μmol/L for iloperidone compared to a decrease of 4.2 μmol/L in placebo groups.
Patient genotypes are obtained via a commercial 500 k SNP Gene Chip Human Mapping Array. To test the hypothesis of altered urate serum levels in association with variants in SLC2A9, Linear models for SLC2A9 variants are performed on urate at baseline levels (corrected for PCs, age, sex) followed by samples collected at end of study (EOS).

COc1cc(C(C)=O)ccc1OCCCN1CCC(c2noc3cc(F)ccc23)CC1 [Iloperidone, 1-[4-[3-[4-(6-flouro-1,2-benzisoxazol-3-yl)-1-piperidinyl]propoxy]-3-methoxyphenyl]ethanone]
Increase of serum urate levels ([1]; 24 mg/day given as 12 mg bid, value in mg/dL): ~0.457 mg/dL | Serum urate LS Mean Difference (95% CI), iloperidone vs placebo ([1]; Day 7, 24 mg/day): 1.3 (−9.29, 11.88) μmol/L | Serum urate LS Mean Change (SE) from baseline ([1]; Day 7): −2.7 (−4.07), 199 μmol/L | Serum urate LS Mean Difference (95% CI), iloperidone vs placebo ([1]; Day 14, 24 mg/day): 15.3 (4.50, 26.15) μmol/L | Serum urate LS Mean Change (SE) from baseline ([1]; Day 14): 12.6 (−4.28), 173 μmol/L | Serum urate LS Mean Difference (95% CI), iloperidone vs placebo ([1]; Day 21, 24 mg/day): 21.0 (8.91, 33.18) μmol/L | Serum urate LS Mean Change (SE) from baseline ([1]; Day 21): 19.1 (−5.24), 157 μmol/L | Serum urate LS Mean Change (SE) from baseline ([1]; Day 28 (endpoint)): 27.2 (−4.93), 142 μmol/L | Serum urate LS Mean Change (SE) from baseline ([1]; Day 28 (endpoint), listed as FANAPT® iloperidone): approximately 27.2 μmol/L | Serum urate LS Mean Change (SE) from baseline ([1]; Day 28 (endpoint), listed as iloperidone): 27.2 µmol/L | Increase in serum urate from baseline compared to placebo ([1]; Day 28, 24 mg/day): 4 fold | Serum urate LS Mean Difference (95% CI), iloperidone vs placebo ([1]; Day 28, 24 mg/day): 27.1 (14.94, 39.20) μmol/L | Change in serum urate from baseline (mean, observed cases) ([1]; Day 28, 24 mg/day, FIG. 3): 33.4 µmol/L | LS Mean Change (SE) in Serum Urate ([1]; Day 28, genotype AA): 25.74 (6.53), 73 μmol/L | Serum urate LS Mean Difference (95% CI), iloperidone vs placebo ([1]; Day 28, genotype AA): 31.91 (14.82, 49) μmol/L | LS Mean Change (SE) in Serum Urate ([1]; Day 28, genotype AA, sex F): 25.48 (9.16), 34 μmol/L | Serum urate LS Mean Difference (95% CI), iloperidone vs placebo ([1]; Day 28, genotype AA, sex F): 27.85 (2.93, 52.76) μmol/L | LS Mean Change (SE) in Serum Urate ([1]; Day 28, genotype AA, sex M): 28.89 (8.7), 39 μmol/L | Serum urate LS Mean Difference (95% CI), iloperidone vs placebo ([1]; Day 28, genotype AA, sex M): 35.52 (12.82, 58.22) μmol/L | LS Mean Change (SE) in Serum Urate ([1]; Day 28, genotype AG): 24.62 (7.61), 51 μmol/L | Serum urate LS Mean Difference (95% CI), iloperidone vs placebo ([1]; Day 28, genotype AG): 14.84 (−4.18, 33.86) μmol/L | LS Mean Change (SE) in Serum Urate ([1]; Day 28, genotype AG, sex F): 0.06 (10.14), 27 μmol/L | Serum urate LS Mean Difference (95% CI), iloperidone vs placebo ([1]; Day 28, genotype AG, sex F): −7.9 (−34.82, 19.03) μmol/L | LS Mean Change (SE) in Serum Urate ([1]; Day 28, genotype AG, sex M): 53.41 (10.84), 24 μmol/L | Serum urate LS Mean Difference (95% CI), iloperidone vs placebo ([1]; Day 28, genotype AG, sex M): 40.79 (14.61, 66.96) μmol/L | LS Mean Change (SE) in Serum Urate ([1]; Day 28, genotype GG): 40.09 (12.36), 18 μmol/L | Serum urate LS Mean Difference (95% CI), iloperidone vs placebo ([1]; Day 28, genotype GG): 56.95 (18.91, 94.99) μmol/L | LS Mean Change (SE) in Serum Urate ([1]; Day 28, genotype GG, sex F): −0.19 (19.49), 7 μmol/L | Serum urate LS Mean Difference (95% CI), iloperidone vs placebo ([1]; Day 28, genotype GG, sex F): 3.08 (−50.97, 57.13) μmol/L | LS Mean Change (SE) in Serum Urate ([1]; Day 28, genotype GG, sex M): 65.61 (15.42), 11 μmol/L | Serum urate LS Mean Difference (95% CI), iloperidone vs placebo ([1]; Day 28, genotype GG, sex M): 102.96 (48.93, 156.99) μmol/L | Mean Change (SE) from Baseline in Serum Urate, Observed Cases ([1]; Day 28, rs7442295 genotype AA, 24 mg/day): 30.5 (50.99), 73 μmol/L | Mean Change (SE) from Baseline in Serum Urate, Observed Cases ([1]; Day 28, rs7442295 genotype AG, 24 mg/day): 31.9 (59.39), 51 μmol/L | Mean Change (SE) from Baseline in Serum Urate, Observed Cases ([1]; Day 28, rs7442295 genotype GG, 24 mg/day): 49.1 (60.56), 18 μmol/L | LS Mean Change (SE) in Serum Urate ([1]; EOS (last observation carried forward), genotype AA, sex F): 14.93 (8.59), 41 μmol/L | LS Mean Change (SE) in Serum Urate ([1]; EOS (last observation carried forward), genotype AA, sex M): 20.63 (7.29), 60 μmol/L | LS Mean Change (SE) in Serum Urate ([1]; EOS (last observation carried forward), genotype AG, sex F): −2.27 (8.75), 39 μmol/L | LS Mean Change (SE) in Serum Urate ([1]; EOS (last observation carried forward), genotype AG, sex M): 32.96 (8.74), 41 μmol/L | LS Mean Change (SE) in Serum Urate ([1]; EOS (last observation carried forward), genotype GG, sex F): −6.03 (20.3), 7 μmol/L | LS Mean Change (SE) in Serum Urate ([1]; EOS (last observation carried forward), genotype GG, sex M): 67.03 (15.38), 12 μmol/L | Percentage of patients with serum urate above ULN ([1]; EOS, Female (ULN 394 μmol/l), rs7442295 AA): 15.0% | Percentage of patients with serum urate above ULN ([1]; EOS, Female (ULN 394 μmol/l), rs7442295 AG): 8.1% | Percentage of patients with serum urate above ULN ([1]; EOS, Female (ULN 394 μmol/l), rs7442295 GG): 0.0% | Percentage of patients with serum urate above ULN ([1]; EOS, Male (ULN 453 μmol/l), rs7442295 AA): 12.3% | Percentage of patients with serum urate above ULN ([1]; EOS, Male (ULN 453 μmol/l), rs7442295 AG): 13.5% | Percentage of patients with serum urate above ULN ([1]; EOS, Male (ULN 453 μmol/l), rs7442295 GG): 33.3% | Percentage of patients with serum urate above ULN ([1]; EOS, Male (ULN 453 μmol/l), rs7442295 GG, listed as iloperidone): about 33.3% | LS Mean Change (SE) in Serum Urate ([1]; EOS, genotype AA): 16.73 (5.66), 101 μmol/L | Serum urate LS Mean Difference (95% CI), iloperidone vs placebo ([1]; EOS, genotype AA): 18.23 (3.19, 33.28) μmol/L | Serum urate LS Mean Difference (95% CI), iloperidone vs placebo ([1]; EOS, genotype AA, sex F): 15.97 (−6.71, 38.64) μmol/L | Serum urate LS Mean Difference (95% CI), iloperidone vs placebo ([1]; EOS, genotype AA, sex M): 18.99 (−0.89, 38.86) μmol/L | LS Mean Change (SE) in Serum Urate ([1]; EOS, genotype AG): 15.05 (6.29), 80 μmol/L | Serum urate LS Mean Difference (95% CI), iloperidone vs placebo ([1]; EOS, genotype AG): 8.61 (−8.27, 25.48) μmol/L | Serum urate LS Mean Difference (95% CI), iloperidone vs placebo ([1]; EOS, genotype AG, sex F): −1.4 (−25.85, 23.06) μmol/L | Serum urate LS Mean Difference (95% CI), iloperidone vs placebo ([1]; EOS, genotype AG, sex M): 19.58 (−2.91, 42.08) μmol/L | LS Mean Change (SE) in Serum Urate ([1]; EOS, genotype GG): 40.4 (12.41), 19 μmol/L | Serum urate LS Mean Difference (95% CI), iloperidone vs placebo ([1]; EOS, genotype GG): 55.4 (18.68, 92.13) μmol/L | Serum urate LS Mean Difference (95% CI), iloperidone vs placebo ([1]; EOS, genotype GG, sex F): 4.54 (−50.43, 59.52) μmol/L | Serum urate LS Mean Difference (95% CI), iloperidone vs placebo ([1]; EOS, genotype GG, sex M): 88.45 (38.7, 138.21) μmol/L | Increases in serum urate levels in iloperidone-treated patients homozygous for rs7442295 (G) ([1]; GG genotype compared with other iloperidone-treated patients): nearly twice as large | Change in SUC relative to baseline at EOS, rs7442295-G/G vs A/G or A/A ([1]; iloperidone-treated patients, FIG. 9, panova<0.0001): significantly greater change from baseline | Increase in percentage of male rs7442295-G/G individuals with high urate levels, baseline to end of study ([1]; male, GG, from about 8.3% at baseline): approximately 4 fold

O=C1Cc2cc(CCN3CCN(c4nsc5ccccc45)CC3)c(Cl)cc2N1 [ziprasidone]
Serum urate LS mean change from baseline to endpoint, ziprasidone treatment arm [2]: 13.1 µmol/L
